Drawing on patent US20220348572A1, “BRIDGED HETEROCYCLYL-SUBSTITUTED PYRIMIDINE COMPOUND, PREPARATION METHOD THEREFOR, AND PHARMACEUTICAL USE THEREOF” (The National Institutes of Pharmaceutical R&D Co., Ltd., priority 2019, published 2022), this text covers IC50 for 26 molecules.

Broadly, the IC50 is the point on the concentration scale where inhibition reaches its midpoint.

For the experiment, the target named is T1, JAK1 kinase (Homo sapiens, UniProt P23458).
T1 construct: purchased Invitrogen PV4744
In words: In vitro inhibitory activity on JAK1 kinase (ADP-Glo Kinase Assay). It is filed as biochemical. The settings on record: JAK1 kinase 4 nM, 1 mM ATP. The procedure: Test Example 1: Determination of In Vitro Inhibitory Activity of the Compounds of the Present Invention on JAK1 Kinase Experimental materials: JAK1 kinase (Invitrogen, PV4744), ATP (Promega, V915B), ADP-Glo Kinase Assay (Promega, V9101), IRS1 (Signalchem, 140-58-1000). Sample preparation: The compounds of the present invention and the control product were dissolved in DMSO solvent respectively to formulate into 10 mM initial liquid. The maximum concentration of the compound was 10 μM, 3-fold dilution, 10 concentration gradients, and duplicate wells for each concentration gradient. Experimental processs: 0.1 μL of the compound to be tested was transferred into a 384 reaction plate (PE, 6007290) via Echo and centrifuged at 1000 rpm/min for 1 min. 5 μL JAK1 kinase (final concentration of 4 nM) was transferred into the 384 reaction plate, which was then centrifuged at 1000 rpm/min for 1 min, and incubated at 25° C. for 15 min. 5 μL substrate mixture (1 mM ATP, IRS1 0.05 mg/ml, kinase buffer solution) was transferred into the 384 reaction plate, which was then centrifuged at 1000 rpm/min for 1 min, and incubated at 25° C. for 60 min. 10 μL ADP-Glo was transferred into the 384 reaction plate, which was then centrifuged at 1000 rpm/min for 1 min, and incubated at 25° C. for 40 min. 20 μL test solution was transferred into the 384 reaction plate, which was then centrifuged at 1000 rpm/min for 1 min and incubated at 25° C. for 40 min. RLU (Relative luminescence unit) signal was read by using an Envision multifunctional plate reader. The signal intensity was used to characterize the degree of the kinase activity. […] IC50 value of 0-100 nM is shown as A, IC50 value of 100-300 nM is shown as B, IC50 value of 300-1000 nM is shown as C, and IC50 value which is greater than 1000 nM is shown as D. NT means not tested.

T1 sequence (P23458 866-1154 limits assumed): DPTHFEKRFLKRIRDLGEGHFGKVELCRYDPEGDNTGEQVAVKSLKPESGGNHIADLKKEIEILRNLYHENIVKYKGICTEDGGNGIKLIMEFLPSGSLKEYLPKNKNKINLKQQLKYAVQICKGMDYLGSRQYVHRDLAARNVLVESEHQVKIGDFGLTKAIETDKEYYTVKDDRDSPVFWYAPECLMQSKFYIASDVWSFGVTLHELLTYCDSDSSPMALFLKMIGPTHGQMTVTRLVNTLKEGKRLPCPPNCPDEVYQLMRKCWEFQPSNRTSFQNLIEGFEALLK

In turn, `Cn1cc(Nc2nccc(C3=CC4CCC(C3)N4C(=O)CC(F)(F)F)n2)cn1` (centres unmarked) [Compound 65, 3,3,3-trifluoro-1-(3-(2-((1-methyl-1H-pyrazol-4-yl)amino)pyrimidin-4-yl)-8-azabicyclo[3.2.1]oct-2-en-8-yl)-1-acetone] returned an IC50 of 100 to 300 nM.
In turn, `Cc1cnc(Nc2cnn(C)c2)nc1C1=C[C@H]2CC[C@@H](C1)N2C(=O)NCC(F)(F)F` [Compound 19-b, (1R,5S)-3-(5-methyl-2-((1-methyl-1H-pyrazol-4-yl)amino)pyrimidin-4-yl)-N-(2,2,2-trifluoroethyl)-8-azabicyclo[3.2.1]oct-2-ene-8-carboxamide] had an IC50 of less than 100 nM.
As for `Cn1cc(Nc2nccc(C3=CC4CCC(C3)N4C(=O)C3(C)CC3(F)F)n2)cn1` (centres unmarked) [Compound 48, (2,2-difluoro-1-methylcyclopropyl)(3-(2-((1-methyl-1H-pyrazol-4-yl)amino)pyrimidin-4-yl)-8-azabicyclo[3.2.1]oct-2-en-8-yl)methanone], the IC50 was greater than 1000 nM.
Consider `Cn1cc(Nc2ncc(F)c(C3=CC4CCC(C3)N4C(=O)[C@@H]3CC3(F)F)n2)cn1` (stereo partly drawn) [Compound 21, ((S)-2,2-difluorocyclopropyl)(3-(5-fluoro-2-((1-methyl-1H-pyrazol-4-yl)amino)pyrimidin-4-yl)-8-azabicyclo[3.2.1]oct-2-en-8-yl)methanone], for which the IC50 was less than 100 nM.
The same measure for `Cn1cc(Nc2nccc(C3=CC4CCC(C3)N4C(=O)C3CC3(F)Cl)n2)cn1` (centres unmarked) [Compound 50, (2-chloro-2-fluorocyclopropyl)(3-(2-((1-methyl-1H-pyrazol-4-yl)amino)pyrimidin-4-yl)-8-azabicyclo[3.2.1]oct-2-en-8-yl)methanone]: 100 to 300 nM; for `O=C(NCC(F)(F)F)N1C2C=C(c3ccnc(Nc4cnn(CCO)c4)n3)CC1CC2` (centres unmarked) [Compound 42, 3-(2-((1-(2-hydroxyethyl)-1H-pyrazol-4-yl)amino)pyrimidin-4-yl)-N-(2,2,2-trifluoroethyl)-8-azabicyclo[3.2.1]oct-2-ene-8-carboxamide]: less than 100 nM.
The result for `Cn1cc(Nc2nccc(C3=CC4CCC(C3)N4C(=O)C3CC3C(F)(F)F)n2)cn1` (centres unmarked) [Compound 49, (3-(2-((1-methyl-1H-pyrazol-4-yl)amino)pyrimidin-4-yl)-8-azabicyclo[3.2.1]oct-2-en-8-yl)(2-(trifluoromethyl)cyclopropyl)methanone] reads less than 100 nM; that for `CC(C(=O)N1C2C=C(c3ccnc(Nc4cnn(C)c4)n3)CC1CC2)C(F)(F)F` (centres unmarked) [Compound 67, 3,3,3-trifluoro-2-methyl-1-(3-(2-((1-methyl-1H-pyrazol-4-yl)amino)pyrimidin-4-yl)-8-azabicyclo[3.2.1]oct-2-en-8-yl)-1-acetone], 300 to 1000 nM.
The result for `Cc1cnc(Nc2cn(C)nc2C)nc1C1=C[C@@H]2CC[C@H](C1)N2C(=O)NCC(F)(F)F` [Compound 26-a, (1S,5R)-3-(2-((1,3-dimethyl-1H-pyrazol-4-yl)amino)-5-methylpyrimidin-4-yl)-N-(2,2,2-trifluoroethyl)-8-azabicyclo[3.2.1]oct-2-ene-8-carboxamide] reads greater than 1000 nM; that for `Cn1cc(Nc2nccc(C3=CC4CCC(C3)N4C(=O)C34CC(C3)C4)n2)cn1` (centres unmarked) [Compound 72, bicyclo[1.1.1]pentan-1-yl(3-(2-((1-methyl-1H-pyrazol-4-yl)amino)pyrimidin-4-yl)-8-azabicyclo[3.2.1]oct-2-en-8-yl)methanone], greater than 1000 nM; that for `Cn1cc(Nc2nccc(C3=CC4CCC(C3)N4C3(CC#N)CN(C(=O)[C@@H]4CC4(F)F)C3)n2)cn1` (stereo partly drawn) [Compound 85, 2-(1-((S)-2,2-difluorocyclopropane-1-carbonyl)-3-(3-(2-((1-methyl-1H-pyrazol-4-yl)amino)pyrimidin-4-yl)-8-azabicyclo[3.2.1]oct-2-en-8-yl)azetidin-3-yl)acetonitrile], greater than 1000 nM.
For the molecule `Cn1cc(Nc2nccc(C3=CC4CCC(C3)N4C(=O)C3CCOC3)n2)cn1` (centres unmarked) [Compound 76, (3-(2-((1-methyl-1H-pyrazol-4-yl)amino)pyrimidin-4-yl)-8-azabicyclo[3.2.1]oct-2-en-8-yl)(tetrahydrofuran-3-yl)methanone], the IC50 is 100 to 300 nM.
The same measure for `Cn1cc(Nc2nccc(C3=CC4CCC(C3)N4C(=O)c3ccc(C(F)(F)F)cc3)n2)cn1` (centres unmarked) [Compound 16, (3-(2-((1-methyl-1H-pyrazol-4-yl)amino)pyrimidin-4-yl)-8-azabicyclo[3.2.1]oct-2-en-8-yl)(4-(trifluoromethyl)phenyl)methanone]: greater than 1000 nM; for `Cn1cc(Nc2nccc(C3=CC4CCC(C3)N4C(=O)N3CC[C@@H](C#N)C3)n2)cn1` (stereo partly drawn) [Compound 7, (R)-1-(3-(2-((1-methyl-1H-pyrazol-4-yl)amino)pyrimidin-4-yl)-8-azabicyclo[3.2.1]oct-2-ene-8-carbonyl)pyrrolidine-3-nitrile]: greater than 1000 nM; for `Cn1cc(Nc2nccc(C3=CC4CCC(C3)N4C(=O)C34CC(C#N)(C3)C4)n2)cn1` (centres unmarked) [Compound 73, 3-(3-(2-((1-methyl-1H-pyrazol-4-yl)amino)pyrimidin-4-yl)-8-azabicyclo[3.2.1]oct-2-ene-8-formyl)bicyclo[1.1.1]pentane-1-carbonitrile]: greater than 1000 nM.
Consider `Cn1cc(Nc2nccc(C3=CC4CCC(C3)N4C(=O)C3CCC3C#N)n2)cn1` (centres unmarked) [Compound 77, 2-(3-(2-((1-methyl-1H-pyrazol-4-yl)amino)pyrimidin-4-yl)-8-azabicyclo[3.2.1]oct-2-ene-8-formyl)cyclobutane-1-carbonitrile], for which the IC50 is less than 100 nM.
`Cn1cc(Nc2nccc(C3=CC4CCC(C3)N4C(=O)C(F)(F)C3CC3)n2)cn1` (centres unmarked) [Compound 75, 2-cyclopropyl-2,2-difluoro-1-(3-(2-((1-methyl-1H-pyrazol-4-yl)amino)pyrimidin-4-yl)-8-azabicyclo[3.2.1]oct-2-en-8-yl)ethan-1-one] had an IC50 of 100 to 300 nM.
The same measure for `Cn1cc(Nc2nccc(C3=CC4CCC(C3)N4C(=O)C3CCOCC3)n2)cn1` (centres unmarked) [Compound 78]: greater than 1000 nM; for `Cc1cnc(Nc2cnn(C)c2C)nc1C1=CC2CCC(C1)N2C(=O)NCC(F)(F)F` (centres unmarked) [Compound 27, 3-(2-((1,5-dimethyl-1H-pyrazol-4-yl)amino)-5-methylpyrimidin-4-yl)-N-(2,2,2-trifluoroethyl)-8-azabicyclo[3.2.1]oct-2-ene-8-carboxamide]: 300 to 1000 nM; for `Cn1cc(Nc2nccc(C3=CC4CCC(C3)N4C(=O)C3CCC(F)(F)C3)n2)cn1` (centres unmarked) [Compound 70, (3,3-difluorocyclopentyl)(3-(2-((1-methyl-1H-pyrazol-4-yl)amino)pyrimidin-4-yl)-8-azabicyclo[3.2.1]oct-2-en-8-yl)methanone]: less than 100 nM.
The same measure for `Cn1cc(Nc2nccc(C3=C[C@@H]4CC[C@H](C3)N4C(=O)NCC(F)(F)F)n2)cn1` [Compound 3-a, (1S,5R)-3-(2-((1-methyl-1H-pyrazol-4-yl)amino)pyrimidin-4-yl)-N-(2,2,2-trifluoroethyl)-8-azabicyclo[3.2.1]oct-2-ene-8-carboxamide]: less than 100 nM.
The result for `Cn1cc(Nc2nccc(C3=CC4CCC(C3)N4C(=O)NC3(C(F)(F)F)CC3)n2)cn1` (centres unmarked) [Compound 33, 3-(2-((1-methyl-1H-pyrazol-4-yl)amino)pyrimidin-4-yl)-N-(1-(trifluoromethyl)cyclopropyl)-8-azabicyclo[3.2.1]oct-2-ene-8-carboxamide] reads less than 100 nM.
For the molecule `Cn1cc(Nc2nccc(C3=C[C@H]4CC[C@@H](C3)N4C(=O)NCC(F)(F)F)n2)cn1` [Compound 3-b, (1R,5S)-3-(2-((1-methyl-1H-pyrazol-4-yl)amino)pyrimidin-4-yl)-N-(2,2,2-trifluoroethyl)-8-azabicyclo[3.2.1]oct-2-ene-8-carboxamide], the IC50 is less than 100 nM.
`NC(=O)C1(n2cc(Nc3nccc(C4=CC5CCC(C4)N5C(=O)[C@@H]4CC4(F)F)n3)cn2)CC1` (stereo partly drawn) [Compound 39, 1-(4-((4-(8-((S)-2,2-Difluorocyclopropane-1-carbonyl)-8-azabicyclo[3.2.1]oct-2-en-3-yl)pyrimidin-2-yl)amino)-1H-pyrazol-1-yl)cyclopropane-1-carboxamide]: the IC50 is greater than 1000 nM.
The same measure for `Cc1cnc(Nc2cn(C)nc2C)nc1C1=C[C@H]2CC[C@@H](C1)N2C(=O)NCC(F)(F)F` [Compound 26-b, (1R,5S)-3-(2-((1,3-dimethyl-1H-pyrazol-4-yl)amino)-5-methylpyrimidin-4-yl)-N-(2,2,2-trifluoroethyl)-8-azabicyclo[3.2.1]oct-2-ene-8-carboxamide]: less than 100 nM.
The same measure for `Cn1cc(Nc2nccc(C3=CC4CCC(C3)N4C(=O)NC3COC3)n2)cn1` (centres unmarked) [Compound 15, 3-(2-((1-methyl-1H-pyrazol-4-yl)amino)pyrimidin-4-yl)-N-(oxetan-3-yl)-8-azabicyclo[3.2.1]oct-2-ene-8-carboxamide]: 300 to 1000 nM.
